From PMC8036666, “Biological and Physico-Chemical Characteristics of Arginine-Rich Peptide Gemini Surfactants with Lysine and Cystine Spacers” (International Journal of Molecular Sciences, 2021)

Assay: in vitro
Conditions: human, 25% (v/v) normal human serum
Experimental: Serum stability of peptides B7 and C7 was tested in normal human serum (Sigma-Aldrich, Steinheim, Germany) according to the modified Jenssen and Aspmo protocol. Briefly, compounds were incubated in 25% (v/v) human serum solution in RPMI-1640 (Sigma-Aldrich, Steinheim, Germany) at 37 ± 0.1 °C. The final compound concentration was 50 µg/mL. Time intervals were 0, 1, 2, 3, 4, and 5 h. To precipitate serum proteins, 100 µL of solution was added to 200 µL of 96% ethanol (Pure P.A., POCH, Avantor Performance Materials S.A, Gliwice, Poland) and incubated at 4 °C before centrifugation (4 °C, 18,000× g, 2 min; Sorvall ST 16R Centrifuge, Thermo Scientific, Osterode am Harz, Germany). Subsequently, 200 µL of supernatant was transferred to glass vials (1.5 mL, Anchem, Poland), and the liquid was evaporated under nitrogen at 37 °C (approximately 30 min). The vials were lyophilized for 24 h to remove traces of solvents.
The influence of serum matrix on calibration curves was eliminated by the preparation of a series of vials with residual substances from serum. Briefly, ethanol was added to serum solution to precipitate proteins. Subsequently, the precipitate was centrifuged, and the supernatant was collected and evaporated to dryness as described above. Standards of the analyzed compounds were prepared in demineralized water in concentration ranging from 1 to 15 ppm. Next, 333 µL of solutions were moved to vials containing residual matrix substances (blank, without surfactant). Similarly, samples obtained after serum stability experiments were dissolved in 333 µL of demineralized water and analyzed. Analyses were performed using UPLC-HRMS. The mobile phase contained deionized water (solvent A) and acetonitrile (solvent B; ACN for HPLC-gradient grade; POCH, Avantor, Gliwice, Poland) both supplemented with a 0.1% (v/v) formic acid (Sigma-Aldrich, Steinheim, Germany).
The quantification of lipopeptides was performed using an Agilent 1290 Infinity chromatograph and Agilent 6550 Quadrupole Time-of-flight (Q-TOF) high-resolution mass spectrometer (HRMS). Gradient LC analyses were conducted using a ZORBAX Eclipse Plus C18 column (Rapid Resolution HD, 2.1 × 50 mm, 1.8 µm) and mobile phases: A—water containing 0.3% of acetonitrile and B—acetonitrile, both with 0.1% (v/v) formic acid. […] The mass detector equipped with an ESI source in HRMS mode was set in scanning mode 100–1700 m/z range in positive ionization. Chromatograms for a desired m/z value were extracted, and calibration curves were prepared using Mass Hunter software. All standards and serum samples were subjected to LC-MS analysis, and all analyses were performed in triplicate. Calibration curves were prepared for chromatograms extracted for m/z values corresponding to mono-, di-, tri- and tetra-charged ions. For analysis of peptide C7, a pseudomolecular ion [M+H]^+ (m/z 1227.8017) was selected, while for the other peptide B7, triple charged ion [M+3H]^3+ (m/z 378.9606).

| SMILES | remaining at 0 h, 50 µg/mL [%] | remaining at 1 h, 50 µg/mL [%] | remaining at 2 h, 50 µg/mL [%] | remaining at 3 h, 50 µg/mL [%] | remaining at 4 h, 50 µg/mL [%] | remaining at 5 h, 50 µg/mL [%] |
| --- | --- | --- | --- | --- | --- | --- |
| CCCCCCC(CCCC)C(=O)N[C@@H](CCCNC(=N)N)C(=O)N[C@@H](CCCNC(=N)N)C(=O)NCCCC[C@H](NC(=O)[C@H](CCCNC(=N)N)NC(=O)[C@H](CCCNC(=N)N)NC(=O)C(CCCC)CCCCCC)C(N)=O (stereo partly drawn) [Compound B7] | 100 ± 2.4 | 94.3 ± 1.8 | 87.3 ± 1.7 | 83.1 ± 1.6 | 80.1 ± 1.2 | 63.2 ± 2.9 |
| CCCCCCC(CCCC)C(=O)N[C@@H](CCCNC(=N)N)C(=O)N[C@@H](CCCNC(=N)N)C(=O)N[C@@H](CSSC[C@H](NC(=O)[C@H](CCCNC(=N)N)NC(=O)[C@H](CCCNC(=N)N)NC(=O)C(CCCC)CCCCCC)C(N)=O)C(N)=O (stereo partly drawn) [Compound C7] | 100 ± 1.1 | 92.2 ± 2.1 | 82.5 ± 1.3 | 79.2 ± 1.6 | 72.8 ± 3 | 59.4 ± 1 |
